In assay [1] the test system is histone acetylation. Briefly: Western blot of histone acetylation in NCI-H1048 tumors, 168 hours post last dose. Format: in vivo. The settings on record: FIG. 1 (F). The procedure: (§1) FIG. 1. Provided compounds can provide various activities including inhibiting tumor growth in vivo. (A): Provided compounds can inhibit tumor growth in vivo. Nude Balb/c mice were inoculated with NCI-H1048 cells in Matrigel. Tumors were allowed to grow up to about 200 mm^3 and mice were then randomized into two groups. Mice were dosed intraperitoneally (i.p.) once per week with vehicle or 30 mg/kg compound 22. Tumor size was measured every three to four days and mice were sacrificed once vehicle tumors reached 2000 mm^3. Error bar is SEM. Dosing started at day 17 post tumor inoculation. (B): Provided technologies can reduce KAT2A and KAT2B levels and histone acetylation levels. […] Vehicle is DMSO. […] Cell count data relative to DMSO control after 8 days of treatment with compound 22 are presented as examples to confirm inhibition. GI50=6 nM. (D): Provided technologies can inhibit tumor growth in vivo. Nude balb/c mice inoculated with H1048 tumors were dosed intraperitoneally once per week (qw i.p.) with vehicle (HbCD) or compound 22. Average tumor volumes+/−SEM from 6 mice are represented. […] See also (A). […] Certain body weights relative to starting weight are presented as examples to confirm tolerability and safety. (F): Provided technologies can reduce KAT2A and KAT2B levels and histone acetylation levels in tumor in vivo. […]

The subject of another assay is epithelial GSEA. The experiment in a line: Epithelial GSEA in NCI-H1048 tumors of treated mice. The settings on record: tumors treated as compared to vehicle; FIG. 1 (G). Format: in vivo. As to the method:
as §1

For assay [2], the system named is histone acetylation. Briefly: Western blot of histone acetylation in neuroendocrine prostate cancer LASCPC-01 cells, 24 hours. To be noted: FIG. 3 (A). In kind it is cell-based. The procedure: (§2) FIG. 3. Provided compounds can provide various activities. (A): Provided technologies can reduce KAT2A and KAT2B levels and histone acetylation levels. […] Cell viability (Cell Titer Glo) data relative to DMSO control after 7 days of treatment with compound 22 are presented as examples to confirm inhibition. GI50=5 nM. (C): Provided technologies can modulate cell states and induce differentiation. […] (D): Provided technologies can reduce KAT2A and KAT2B levels and histone acetylation levels including in neuroendocrine prostate cancer primary patient organoid. […] Concentrations are nM. […] Cell viability data relative to DMSO control after 21 days of treatment with compound 22 are presented as examples to confirm inhibition. GI50=3 nM. (F): Provided technologies can modulate cell states and induce differentiation.
A general note: A western blot detects proteins with antibodies after separation by electrophoresis.

Assay [3] has as its system NCI-H1048 human lung cancer xenograft. Briefly: NCI-H1048 human lung cancer xenograft model, tumor growth inhibition (BALB/c nude mice). In kind it is in vivo, mouse (BALB/c nude); human tumor cells. The settings on record: FIG. 1. The text has this: Among other things, provided technologies are useful for treating various diseases, disorders, or conditions. For example, in some embodiments, provided technologies are useful for treating cancer as confirmed in the present Example. In some embodiments, the present disclosure provides technologies for assessing various technologies, e.g., compounds, compositions, or methods. Among other things, the present Example provides technologies, e.g., xenograft model, for assessing various technologies. In some embodiments, provided technologies are assessed in tumor xenograft model. In some embodiments, provided technologies are assessed in NCI-H1048 human lung cancer xenograft model. […]
As described herein, various provided technologies are assessed in cancer xenograft models. […] A number of doses were assessed including 30 mg/kg. Assessed compounds were administered orally or via the intraperitoneal route. […]
Cell culture: NCI-H1048 tumor cells are maintained in vitro as monolayer culture in HITES Medium supplemented with 5% fetal bovine serum at 37° C. in an atmosphere of 5% CO2 in air. […] The cells growing in an exponential growth phase are harvested and counted for tumor inoculation. […]
Measurement Parameters: For routine monitoring, animals are monitored for tumor growth, behavior (e.g., mobility, food and water consumption), body weight (BW), eye/hair matting and other effects. […]

Another assay addresses KAT2A (Homo sapiens, UniProt Q92830). The experiment in a line: Western blot of KAT2A level in NCI-H1048 cells, 24 h. In kind it is cell-based. More on the design: degrader, Western blot. To be noted: various concentrations, FIG. 1 (B). The procedure: as §1
In a further assay the target is KAT2B (Homo sapiens, UniProt Q92831). Briefly: Western blot of KAT2B level in NEPC primary patient organoid, 72 hours. In kind it is cell-based. More on the design: degrader, Western blot. The settings on record: FIG. 3 (D). As to the method:
as §2

The results in this text go back to patent US20260306640A1, “TECHNOLOGIES TARGETING CELL STATES” (Auron Therapeutics, Inc., priority 2023, published 2026).

Molecules are shown by their SMILES. “Also recorded” adds a separate entry of the source.

Sequence of KAT2B (Q92831 whole entry): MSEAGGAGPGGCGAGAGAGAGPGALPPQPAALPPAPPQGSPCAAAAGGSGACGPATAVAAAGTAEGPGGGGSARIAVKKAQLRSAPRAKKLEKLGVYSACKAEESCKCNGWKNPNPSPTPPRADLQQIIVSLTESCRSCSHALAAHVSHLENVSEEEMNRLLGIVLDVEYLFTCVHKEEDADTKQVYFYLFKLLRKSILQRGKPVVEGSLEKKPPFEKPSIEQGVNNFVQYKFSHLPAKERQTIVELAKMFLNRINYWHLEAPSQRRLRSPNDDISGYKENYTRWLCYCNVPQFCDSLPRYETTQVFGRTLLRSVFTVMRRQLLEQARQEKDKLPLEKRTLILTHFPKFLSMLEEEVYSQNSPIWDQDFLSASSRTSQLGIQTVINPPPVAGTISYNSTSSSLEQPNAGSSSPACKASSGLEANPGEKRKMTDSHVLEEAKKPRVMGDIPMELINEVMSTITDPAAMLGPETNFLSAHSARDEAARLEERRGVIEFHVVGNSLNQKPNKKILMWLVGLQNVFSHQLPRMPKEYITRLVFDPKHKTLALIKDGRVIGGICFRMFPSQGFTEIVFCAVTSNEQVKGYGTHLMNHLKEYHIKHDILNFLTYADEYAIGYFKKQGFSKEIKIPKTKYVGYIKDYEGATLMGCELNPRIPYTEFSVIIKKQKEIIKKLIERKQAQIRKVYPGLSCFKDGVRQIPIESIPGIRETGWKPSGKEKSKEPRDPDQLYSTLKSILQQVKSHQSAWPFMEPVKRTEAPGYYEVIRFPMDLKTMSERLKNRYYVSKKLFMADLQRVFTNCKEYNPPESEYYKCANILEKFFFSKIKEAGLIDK
Sequence of KAT2A (Q92830 whole entry): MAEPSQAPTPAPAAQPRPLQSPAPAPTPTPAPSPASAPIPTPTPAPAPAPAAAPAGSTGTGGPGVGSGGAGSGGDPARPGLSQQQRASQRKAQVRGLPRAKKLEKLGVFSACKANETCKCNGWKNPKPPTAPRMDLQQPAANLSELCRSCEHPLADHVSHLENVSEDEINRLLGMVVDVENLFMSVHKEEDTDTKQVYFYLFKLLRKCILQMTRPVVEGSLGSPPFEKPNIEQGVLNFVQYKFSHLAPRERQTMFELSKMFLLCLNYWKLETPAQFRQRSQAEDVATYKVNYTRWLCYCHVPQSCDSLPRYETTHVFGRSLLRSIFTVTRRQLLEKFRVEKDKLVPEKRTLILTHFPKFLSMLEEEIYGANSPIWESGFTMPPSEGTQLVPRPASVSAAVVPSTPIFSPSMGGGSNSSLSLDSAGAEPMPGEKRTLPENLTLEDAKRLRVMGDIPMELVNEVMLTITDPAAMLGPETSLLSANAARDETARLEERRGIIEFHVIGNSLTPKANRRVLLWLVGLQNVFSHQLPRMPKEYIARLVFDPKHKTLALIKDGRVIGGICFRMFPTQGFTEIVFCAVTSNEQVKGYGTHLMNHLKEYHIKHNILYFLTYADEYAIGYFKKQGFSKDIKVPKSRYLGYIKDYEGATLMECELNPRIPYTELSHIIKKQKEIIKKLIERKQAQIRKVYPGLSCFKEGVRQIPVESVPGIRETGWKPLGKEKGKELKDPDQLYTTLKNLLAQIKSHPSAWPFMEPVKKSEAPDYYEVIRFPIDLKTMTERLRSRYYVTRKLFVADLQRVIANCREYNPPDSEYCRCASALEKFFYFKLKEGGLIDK

Take `CN1C[C@H](Nc2cnn(C)c(=O)c2Br)C[C@H](c2ccc(C(=O)N3CCC(CN4CCN(c5ccc6c(c5)CN(C5CCC(=O)NC5=O)C6=O)CC4)CC3)cc2)C1` (stereo partly drawn) [Compound 22, 3-(5-(4-((1-(4-((3R,5R)-5-((5-bromo-1-methyl-6-oxo-1,6-dihydropyridazin-4-yl)amino)-1-methylpiperidin-3-yl)benzoyl)piperidin-4-yl)methyl)piperazin-1-yl)-1-oxoisoindolin-2-yl)piperidine-2,6-dione]: in the assay on histone acetylation [1], the “reduction of histone acetylation in tumor” value is “significant reduction”. The “epithelial GSEA” value with epithelial GSEA was “significant upregulation”. For the same compound, the “reduction of histone acetylation level” value in the assay with histone acetylation [2] is listed as “confirm such reduction”. For the same compound, the “tumor growth inhibition in vivo” value in assay [3] is “tumor growth inhibition in vivo; also recorded: inhibit cell growth in vitro and in vivo”. The “reduction of KAT2A level” value at KAT2A was “confirm such reduction”. Further, on KAT2B, the “reduction of KAT2B level” value was “confirmed such reductions”.
